Where two headings read alike, the source gives them in different places.
System: fibrosarcoma cell line HT1080
Experiment: Ferroptosis screening model (MTT method), Erastin-induced ferroptosis
Type: cell-based, human
Conditions: 72 h, average of three tests, read-out: EC50
Outline: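 HT1080 cells adhered 24 h, then received compound plus Erastin ([…] final) for 72 h at 37 °C, 5% CO2, in triplicate. Viability by MTT with SDS solubilisation, absorbance at 570 nm; inhibition of ferroptosis fitted to give EC50.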

[1] = Homo sapiens, HT-1080, 72 h, HT1080, ferroptosis inducer Erastin
[2] = HT1080, ferroptosis inducer Erastin

Row | SMILES | EC50 [1] [nM] | further results
1 | C=C(c1cccc(C(F)F)c1)c1ccc2c(c1)Nc1ccccc1S2 [Compound B34, 2-(1-(3-(difluoromethyl)phenyl)ethenyl)-10H-phenothiazine] | 11 | –
2 | C=C(c1ccc(C#N)c(C)c1)c1ccc2c(c1)Nc1ccccc1S2 [Compound B37, 4-(1-(10H-phenothiazin-2-yl)ethenyl)-2-methylbenzonitrile] | 14 | –
3 | C=C(c1ccc([N+](=O)[O-])c(C)c1)c1ccc2c(c1)Nc1ccccc1S2 [Compound B38, 2-(1-(3-methyl-4-nitrophenyl)ethenyl)-10H-phenothiazine] | 35 | –
4 | C=C(c1ccc2c(c1)Nc1ccccc1S2)c1ccc(OC)c(OC)c1 [Compound B39, 2-(1-(3,4-dimethoxylphenyl)ethenyl)-10H-phenothiazine] | 23 | –
5 | C=C(c1ccc2c(c1)Nc1ccccc1S2)c1cc(OC)c(OC)c(OC)c1 [Compound B42, 2-(1-(3,4,5-trimethoxylphenyl)ethenyl)-10H-phenothiazine] | – | EC50 (Homo sapiens, HT-1080, HT1080, ferroptosis inducer Erastin): 45 nM
6 | C=C(c1ccc(C(=O)N2CCOCC2)cc1)c1ccc2c(c1)Nc1ccccc1S2 [Compound B47, (4-(1-(10H-phenothiazin-2-yl)ethenyl)phenyl)(morpholine)ketone] | – | EC50 [2]: 24 nM
7 | C=C(c1ccc(C(=O)N2CCN(C)CC2)cc1)c1ccc2c(c1)Nc1ccccc1S2 [Compound B48, (4-(1-(10H-phenothiazin-2-yl)ethenyl)phenyl)(4-methylpiperazin-1-yl)ketone] | 13 | –
8 | C=C(c1cnc(N2CCN(C)CC2)nc1)c1ccc2c(c1)Nc1ccccc1S2 [Compound B49, 2-(1-(2-(4-methylpiperazin-1-yl)pyrimidin-5-yl)ethenyl)-10H-phenothiazine] | 2 | –
9 | C=C(c1cnc(N2CCCN(C)CC2)nc1)c1ccc2c(c1)Nc1ccccc1S2 [Compound B50, 2-(1-(2-(4-methyl-1,4-homopiperazin-1-yl)pyrimidin-5-yl)ethenyl)-10H-phenothiazine] | 4 | –
10 | C=C(c1cnc(N2CCOCC2)nc1)c1ccc2c(c1)Nc1ccccc1S2 [Compound B51, 4-(5-(1-(10H-phenothiazin-2-yl)ethenyl)pyrimidin-2-yl)morpholine] | – | EC50 [2]: 10 nM
11 | C=C(c1ccc(S(=O)(=O)NC2CCOCC2)cc1)c1ccc2c(c1)Nc1ccccc1S2 [Compound B52, 4-(1-(10H-phenothiazin-2-yl)ethenyl)-N-(tetrahydro-2H-pyran-4-yl)benzenesulfonamide] | 11 | –
12 | C=C(c1cccc(S(=O)(=O)NC(C)(C)C)c1)c1ccc2c(c1)Nc1ccccc1S2 [Compound B53, 3-(1-(10H-phenothiazin-2-yl)ethenyl)-N-(t-butyl)Benzenesulfonamide] | 148 | –
13 | C=C(c1ccc(S(=O)(=O)N2CCCC2)cc1)c1ccc2c(c1)Nc1ccccc1S2 [Compound B54, 2-(1-(4-(pyrrolin-1-ylsulfonyl)phenyl)ethenyl)-10H-phenothiazine] | 32 | –
14 | C=C(c1cccc(S(=O)(=O)NC2CCOCC2)c1)c1ccc2c(c1)Nc1ccccc1S2 [Compound B55, 3-(1-(10H-phenothiazin-2-yl)ethenyl)-N-(tetrahydro-2H-pyran-4-yl)benzenesulfonamide] | 12 | –
15 | C=C(c1ccc(S(=O)(=O)NCC2CCOCC2)cc1)c1ccc2c(c1)Nc1ccccc1S2 [Compound B56, 4-(1-(10H-phenothiazin-2-yl)ethenyl)-N-((tetrahydro-2H-pyran-4-yl)methyl)Benzenesulfonamide] | 22 | –
16 | C=C(c1ccc(S(=O)(=O)N2CCOCC2)cc1)c1ccc2c(c1)Nc1ccccc1S2 [Compound B57, 4-((4-(1-(10H-phenothiazin-2-yl)ethenyl)phenyl)sulfonyl)morpholine] | 34 | –
17 | C=C(c1ccc(S(=O)(=O)NC2CCN(C)CC2)cc1)c1ccc2c(c1)Nc1ccccc1S2 [Compound B59, 4-(1-(10H-phenothiazin-2-yl)ethenyl)-N-(1-methylpiperidin-4-yl)Benzenesulfonamide] | 0.2 | –
18 | CC(c1ccc2c(c1)Nc1ccccc1S2)S(=O)(=O)N1CCN(C)CC1 (centres unmarked) [Compound C2, 2-(1-((4-methylpiperazin-1-yl)sulfonyl)ethyl)-10H-phenothiazine] | 34 | –
19 | CC(C)N1CCN(S(=O)(=O)C(C)c2ccc3c(c2)Nc2ccccc2S3)CC1 (centres unmarked) [Compound C4, 2-(1-((4-isopropylpiperazin-1-yl)sulfonyl)ethyl)-10H-phenothiazine] | 29 | –

Further compounds by falling EC50 [1], results first:

Row | EC50 [1] [nM] | SMILES | further results
20 | 905 | C=C(c1cc(C(C)(C)C)cc(C(C)(C)C)c1)c1ccc2c(c1)Nc1ccccc1S2 [Compound B41, 2-(1-(3,5-di-t-butylphenyl)ethenyl)-10H-phenothiazine] | –
21 | 111 | C=C(c1cccc(C(=O)c2ccccc2)c1)c1ccc2c(c1)Nc1ccccc1S2 [Compound B33, (3-(1-(10H-phenothiazin-2-yl)ethenyl)phenyl)benzophenone] | –
22 | 68 | CC(c1ccc2c(c1)Nc1ccccc1S2)S(=O)(=O)N1CCOCC1 (centres unmarked) [Compound C1, 4-((1-(10H-phenothiazin-2-yl)ethyl)sulfonyl)morpholine] | –
23 | 66 | C=C(c1ccc(S(=O)(=O)NC2CCC2)cc1)c1ccc2c(c1)Nc1ccccc1S2 [Compound B58, 4-(1-(10H-phenothiazin-2-yl)ethenyl)-N-cyclobutylbenzenesulfonamide] | –
24 | 53 | C=C(c1cccc(OCc2ccccc2)c1)c1ccc2c(c1)Nc1ccccc1S2 [Compound B35, 2-(1-(3-(benzyloxyl)phenyl)ethenyl)-10H-phenothiazine] | –
25 | 41 | C=C(c1ccc(C#N)c(F)c1)c1ccc2c(c1)Nc1ccccc1S2 [Compound B40, 4-(1-(10H-phenothiazin-2-yl)ethenyl)-2-fluorobenzonitrile] | –
26 | 35 | CC(c1ccc2c(c1)Nc1ccccc1S2)S(=O)(=O)N1CCN(Cc2ccc3c(c2)OCO3)CC1 (centres unmarked) [Compound C5, 2-(1-((4-(benzo[d][1,3]dioxa-5-ylmethyl)piperazin-1-yl)sulfonyl)ethyl)-10H-phenothiazine] | –
27 | 30 | C=C(c1cccc(N2CCOCC2)c1)c1ccc2c(c1)Nc1ccccc1S2 [Compound B36, 4-(3-(1-(10H-phenothiazin-2-yl)ethenyl)phenyl)morpholine] | –
28 | 13 | C=C(c1ccc(N2CCOCC2)nc1)c1ccc2c(c1)Nc1ccccc1S2 [Compound B45, 4-(5-(1-(10H-phenothiazin-2-yl)ethenyl)pyridin-2-yl)morpholine] | –
29 | 11 | C=C(c1ccc(N)nc1)c1ccc2c(c1)Nc1ccccc1S2 [Compound B44, 5-(1-(10H-phenothiazin-2-yl)ethenyl)pyridin-2-amine] | –
30 | 10 | C=C(c1ccc2c(c1)Nc1ccccc1S2)c1ccc(C(=O)Nc2ccc(CN3CCN(C)CC3)c(C(F)(F)F)c2)cc1C [Compound B46, 4-(1-(10H-phenothiazin-2-yl)ethenyl)-3-methyl-N-(4-((4-methylpiperazin-1-yl)methyl)-3-(trifluoromethyl)phenyl)benzamide] | –
31 | 9 | CC(c1ccc2c(c1)Nc1ccccc1S2)S(=O)(=O)N1CCCN(C)CC1 (centres unmarked) [Compound C3, 2-(1-((4-methyl-1,4-homopiperazin-1-yl)sulfonyl)ethyl)-10H-phenothiazine] | –
32 | 4 | C=C(c1ccc(NC(C)=O)nc1)c1ccc2c(c1)Nc1ccccc1S2 [Compound B43, N-(5-(1-(10H-phenothiazin-2-yl)ethenyl)pyridin-2-yl)acetylamine] | –

Reference: patent US11440909B2, “10H-phenothiazine ferroptosis inhibitor as well as the preparative method and the use thereof” (CHENGDU HENGHAO INVESTMENT CO. LIMITED, priority 2018, dated 2022)
